Source: patent US9370507B2, “Pyridonyl guanidine F1F0-ATPase inhibitors and therapeutic uses thereof” (Lycera Corporation, priority 2010, dated 2016)

How the values were obtained:
Ramos cells = assay: Cytotoxicity in Ramos cells; type: cell-based; settings: Homo sapiens, read-out: Ramos Cell EC50
Experimental: (§1) The compounds listed in Table 4 were tested for activity against F1F0-ATPase by measuring the ability of the compounds to inhibit ATP synthesis. In addition, the compounds were assessed for cytotoxicity in Ramos cells Inhibition of F1F0-ATPase activity in synthesizing ATP and cytotoxicity in Ramos cells were measured according to the procedures described in K. M. Johnson et al. Chemistry & Biology 2005, 12, 485-496.

F1F0-ATPase = target: T1, F1F0-ATPase (Bos taurus, UniProt P13621); assay: Inhibition of F1F0-ATPase activity in synthesizing ATP; type: biochemical; settings: inhibition of ATP synthesis; read-out: ATP Syn IC50
T1 construct: from tissue
Experimental: as §1

| Compound | EC50 (Ramos cells) [µM] | IC50 (F1F0-ATPase) [µM] |
| --- | --- | --- |
| Cc1cc(CN/C(=N/C(=O)c2ccc(Cl)c(F)c2)Nc2cccc(O)n2)no1 [Compound A-55] | > 10 | < 10 |
| O=C(/N=C(\NCC(F)(F)F)Nc1cccc(O)n1)c1ccc(Cl)cc1 [Compound A-56] | < 10 | < 10 |
| CC(C)(N/C(=N\C(=O)c1ccc(Cl)cc1)Nc1cccc(O)n1)C(F)(F)F [Compound A-57] | < 10 | < 10 |
| CC1(N/C(=N\C(=O)c2ccc(Cl)cc2)Nc2cccc(O)n2)CCC1 [Compound A-58] | < 10 | < 10 |
| O=C(/N=C(/Nc1cccc(O)n1)NC(C1CC1)C1CC1)c1ccc(C(F)(F)F)cc1 [Compound A-59] | < 10 | < 10 |
| O=C(/N=C(/NCc1cc(F)c(F)c(F)c1)Nc1cccc(O)n1)c1ccc(Cl)cc1 [Compound A-60] | > 10 | < 10 |
| CC1(N/C(=N/C(=O)c2ccc(C(F)(F)F)cc2)Nc2cccc(O)n2)CCCC1 [Compound A-61] | < 10 | < 10 |
| CC1(N/C(=N/C(=O)c2ccc(Cl)cc2)Nc2cccc(O)n2)CCCC1 [Compound A-62] | < 10 | < 10 |
| O=C(N=C(Nc1cccc(O)n1)NC1CCC(C(F)(F)F)CC1)c1ccc(C(F)(F)F)cc1 (centres unmarked) [Compound A-63] | < 10 | < 10 |
| O=C(N=C(Nc1cccc(O)n1)NC1CCC(C(F)(F)F)CC1)c1ccc(Cl)cc1 (centres unmarked) [Compound A-64] | < 10 | < 10 |
| CC(=O)N(Cc1ccc(F)c(Cl)c1)/C(=N/C(=O)c1ccc(C(F)(F)F)cc1)Nc1cccc(O)n1 [Compound A-65] | < 10 | < 10 |
| COc1cccc(N/C(=N\C(=O)c2ccc(C(F)(F)F)cc2)NCc2ccc(Cl)c(F)c2)n1 [Compound A-66] | > 10 | > 10 |
| CC(NC(=NC(=O)c1ccc(C(F)(F)F)cc1)Nc1cccc(O)n1)c1ccccc1Cl (centres unmarked) [Compound A-67] | < 10 | < 10 |
| CC(NC(=NC(=O)c1ccc(C(F)(F)F)cc1)Nc1cccc(O)n1)c1cccc(Cl)c1 (centres unmarked) [Compound A-68] | < 10 | < 10 |
| CC(NC(=NC(=O)c1ccc(C(F)(F)F)cc1)Nc1cccc(O)n1)c1ccc(Cl)cc1 (centres unmarked) [Compound A-69] | < 10 | < 10 |
| O=C(/N=C(/NCc1ccccc1Cl)Nc1cccc(O)n1)c1ccc(F)c(F)c1 [Compound A-71] | < 10 | < 10 |
| O=C(/N=C(/NCc1cccc(Cl)c1)Nc1cccc(O)n1)c1ccc(F)c(F)c1 [Compound A-72] | < 10 | < 10 |
| O=C(/N=C(/NCc1ccccc1C(F)(F)F)Nc1cccc(O)n1)c1ccc(F)c(F)c1 [Compound A-73] | < 10 | < 10 |
| O=C(/N=C(/NCc1cccc(C(F)(F)F)c1)Nc1cccc(O)n1)c1ccc(F)c(F)c1 [Compound A-74] | < 10 | < 10 |
| O=C(/N=C(/NCc1cc(F)c(F)c(F)c1)Nc1cccc(O)n1)c1ccc(F)c(F)c1 [Compound A-75] | > 10 | > 10 |
| O=C(/N=C(/NCc1ccc(Cl)cc1)Nc1cccc(O)n1)c1ccc(Cl)cc1 [Compound A-76] | < 10 | < 10 |
| O=C(/N=C(/NCc1ccccc1C(F)(F)F)Nc1cccc(O)n1)c1ccc(Cl)cc1 [Compound A-77] | < 10 | < 10 |
| O=C(/N=C(/NCc1ccc(C(F)(F)F)cc1)Nc1cccc(O)n1)c1ccc(Cl)cc1 [Compound A-79] | < 10 | < 10 |
| O=C(/N=C(/NCc1ccc(F)c(F)c1)Nc1cccc(O)n1)c1ccc(Cl)cc1 [Compound A-80] | < 10 | < 10 |
| O=C(/N=C(/NCc1ccc(F)cc1Cl)Nc1cccc(O)n1)c1ccc(Cl)cc1 [Compound A-81] | < 10 | < 10 |
| O=C(/N=C(/NCc1ccc(F)c(Cl)c1)Nc1cccc(O)n1)c1ccc(Cl)cc1 [Compound A-82] | < 10 | < 10 |
| O=C(/N=C(/NCc1ccc(Cl)c(F)c1)Nc1cccc(O)n1)c1ccc(Cl)cc1 [Compound A-83] | < 10 | < 10 |
| O=C(/N=C(/NCc1ccc(Cl)cc1F)Nc1cccc(O)n1)c1ccc(Cl)cc1 [Compound A-84] | > 10 | < 10 |

| Compound | EC50 (Ramos cells) [µM] | IC50 (F1F0-ATPase) [µM] |
| --- | --- | --- |
| O=C(/N=C(/NCc1ccc(F)cc1)Nc1cccc(O)n1)c1ccc(C(F)(F)F)cc1 [Compound A-85] | < 10 | < 10 |
| O=C(/N=C(/NCc1cccc(F)c1F)Nc1cccc(O)n1)c1ccc(C(F)(F)F)cc1 [Compound A-86] | < 10 | < 10 |
| O=C(/N=C(/NCc1ccccc1Cl)Nc1cccc(O)n1)c1ccc(Cl)cc1 [Compound A-87] | < 10 | < 10 |
| O=C(/N=C(/NCc1cccc(Cl)c1)Nc1cccc(O)n1)c1ccc(Cl)cc1 [Compound A-88] | < 10 | < 10 |
| O=C(/N=C(\Nc1cccc(O)n1)NC1CCCC1)c1ccc(C(F)(F)F)cc1 [Compound A-89] | < 10 | < 10 |
| CCC(C)(C)N/C(=N/C(=O)c1ccc(C(F)(F)F)cc1)Nc1cccc(O)n1 [Compound A-90] | < 10 | < 10 |
| C[C@@H](N/C(=N/C(=O)c1ccc(C(F)(F)F)cc1)Nc1cccc(O)n1)C1CCCCC1 [Compound A-91] | < 10 | < 10 |
| O=C(/N=C(\Nc1cccc(O)n1)NC1CCOCC1)c1ccc(C(F)(F)F)cc1 [Compound A-92] | < 10 | < 10 |
| O=C(/N=C(\Nc1cccc(O)n1)NC1CCCOC1)c1ccc(C(F)(F)F)cc1 (centres unmarked) [Compound A-93] | < 10 | < 10 |
| COCC(C)N/C(=N/C(=O)c1ccc(C(F)(F)F)cc1)Nc1cccc(O)n1 (centres unmarked) [Compound A-94] | > 10 | < 10 |
| O=C(/N=C(\Nc1cccc(O)n1)NC1CCCC1)c1ccc(F)c(F)c1 [Compound A-95] | < 10 | < 10 |
| CCC(C)(C)N/C(=N/C(=O)c1ccc(F)c(F)c1)Nc1cccc(O)n1 [Compound A-96] | < 10 | < 10 |
| C[C@@H](N/C(=N/C(=O)c1ccc(F)c(F)c1)Nc1cccc(O)n1)C1CCCCC1 [Compound A-97] | < 10 | < 10 |
| O=C(/N=C(\Nc1cccc(O)n1)NC1CCOCC1)c1ccc(F)c(F)c1 [Compound A-98] | > 10 | > 10 |
| O=C(/N=C(\Nc1cccc(O)n1)NC1CCCOC1)c1ccc(F)c(F)c1 (centres unmarked) [Compound A-99] | > 10 | > 10 |
| COCC(C)N/C(=N/C(=O)c1ccc(F)c(F)c1)Nc1cccc(O)n1 (centres unmarked) [Compound A-100] | > 10 | > 10 |
| O=C(/N=C(\Nc1cccc(O)n1)NC1CCCC1)c1ccc(Cl)cc1 [Compound A-101] | > 10 | < 10 |
| CCC(C)(C)N/C(=N/C(=O)c1ccc(Cl)cc1)Nc1cccc(O)n1 [Compound A-102] | < 10 | < 10 |
| C[C@@H](N/C(=N/C(=O)c1ccc(Cl)cc1)Nc1cccc(O)n1)C1CCCCC1 [Compound A-103] | < 10 | < 10 |
| O=C(/N=C(\Nc1cccc(O)n1)NC1CCOCC1)c1ccc(Cl)cc1 [Compound A-104] | > 10 | > 10 |
| O=C(/N=C(\Nc1cccc(O)n1)NC1CCCOC1)c1ccc(Cl)cc1 (centres unmarked) [Compound A-105] | > 10 | > 10 |
| COCC(C)N/C(=N/C(=O)c1ccc(Cl)cc1)Nc1cccc(O)n1 (centres unmarked) [Compound A-106] | > 10 | > 10 |
| CC(C)N/C(=N/C(=O)c1ccc(F)c(F)c1)Nc1cccc(O)n1 [Compound A-107] | > 10 | < 10 |
| O=C(/N=C(\Nc1cccc(O)n1)NC1CCC1)c1ccc(F)c(F)c1 [Compound A-108] | > 10 | < 10 |
| CC(C)N/C(=N/C(=O)c1ccc(Cl)cc1)Nc1cccc(O)n1 [Compound A-109] | > 10 | < 10 |
| Nc1cccc(N/C(=N\C(=O)c2ccc(F)c(F)c2)Nc2cccc(C(F)(F)F)c2)n1 [Compound A-110] | > 10 | < 10 |
| CCOC(=O)Nc1cccc(N/C(=N\C(=O)c2ccc(F)c(F)c2)Nc2cccc(C(F)(F)F)c2)n1 [Compound A-111] | > 10 | > 10 |
